This is an account of results in PubChem BioAssay (NCI).

The structures appear in SMILES notation. Several values for one entry are separate records, joined by “and”; a condition that tells them apart may be missing. Equal entries are not always repeated.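 Cells were grown in 96-well plates and exposed to each compound for 48 hours at five concentrations; endpoints were interpolated linearly between bracketing concentrations, or set to the highest concentration if not reached. The concentration for 50% growth inhibition is given as GI50. TGI: concentration producing complete growth inhibition.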

Among the test systems are A549 NSCLC; T-47D breast; SR leukemia; NCI-H226 lung; M14 melanoma; HCT-116 colon; MALME-3M melanoma; UACC-257 melanoma; KM12 colon; TK-10 renal.
Common to all, as to assay: NCI tumour cell line growth inhibition, 48 h

As for `CCOC(=O)/C(=C\c1cccc(C)c1)C(C)=O`, the TGI with A549 NSCLC was over 100 µM; in the test on T-47D breast, 46.7 µM; in the test on SR leukemia it was 84.5 µM; in the test on NCI-H226 lung, over 100 µM; in the test on M14 melanoma, 44.3 µM; with HCT-116 colon, 30.4 µM. The TGI in the test on MALME-3M melanoma was found to be 31.4 µM; in the test on UACC-257 melanoma, 35.1 µM; with KM12 colon it was 32.9 µM; in the test on TK-10 renal, 44.3 µM.
Regarding `CCCCCC/C=C\CCCCCCCCC(=O)c1cccc(OC)c1OC`, the TGI in the test with A549 NSCLC, in the test with T-47D breast, in the test with SR leukemia, in the test with NCI-H226 lung, in the test on M14 melanoma and in the test on HCT-116 colon was over 100 µM in each case. Further, the TGI in the test with MALME-3M melanoma, in the test on UACC-257 melanoma, in the test with KM12 colon and in the test with TK-10 renal was over 100 µM throughout.
For the compound `CCN(CC)c1ccc2nc3ccc(=[N+](CC)CC)cc-3oc2c1`, the GI50 with A549 NSCLC is 0.826 µM; in the test on T-47D breast, 0.105 µM; with SR leukemia, 0.424 µM; with NCI-H226 lung, 0.729 µM; in the test on M14 melanoma it was 0.0903 µM; in the test on HCT-116 colon, 0.0402 µM. For the same compound, the GI50 in the test with MALME-3M melanoma is 0.115 µM; in the test on UACC-257 melanoma, 0.0457 µM; in the test on KM12 colon, 0.122 µM; in the test with TK-10 renal it was 0.474 µM. The TGI in the test with A549 NSCLC was over 100 µM; in the test on T-47D breast, 1.18 µM; with SR leukemia, over 44.3 µM; in the test on NCI-H226 lung, 3.8 µM; in the test on M14 melanoma, 1.71 µM; with HCT-116 colon, 1.27 µM. For the same compound, the TGI with MALME-3M melanoma was determined as 0.628 µM; with UACC-257 melanoma, 0.654 µM; in the test on KM12 colon, 8.13 µM; in the test with TK-10 renal, 3.57 µM.
Take `CCO/C=C1\SC(=S)N(c2ccc(OCC)cc2)C1=O`: the TGI in the test on A549 NSCLC, with T-47D breast, with SR leukemia, with NCI-H226 lung, in the test on M14 melanoma and in the test with HCT-116 colon was over 100 µM throughout. For the same compound, the TGI in the test with MALME-3M melanoma, in the test on UACC-257 melanoma, with KM12 colon and in the test with TK-10 renal was over 100 µM throughout.
Regarding `Cc1noc(NC(=O)Nc2ccccc2F)c1C#N`, the TGI was over 52.1 µM in the test with A549 NSCLC; over 77.4 µM in the test on T-47D breast; over 100 µM in the test on SR leukemia; over 100 µM in the test on NCI-H226 lung; over 42.6 µM with M14 melanoma; over 43 µM in the test on HCT-116 colon. The TGI in the test on MALME-3M melanoma was over 51.9 µM; in the test on UACC-257 melanoma it was over 51 µM; in the test on KM12 colon it was over 100 µM; with TK-10 renal, over 45.1 µM.
For the compound `COc1cc2nnc3c4cccnc4[nH]c3c2cc1OC`, the GI50 is 16 µM and 7.9 µM in the test with A549 NSCLC; 0.595 µM and 0.401 µM in the test on T-47D breast; 0.117 µM and 0.0395 µM with SR leukemia; 5.44 µM and 1.94 µM in the test with NCI-H226 lung; 8.18 µM and 1.79 µM with M14 melanoma; 0.292 µM and 0.127 µM in the test with HCT-116 colon. The GI50 in the test on MALME-3M melanoma was 7.54 µM and 2.28 µM; in the test with UACC-257 melanoma it was 9.13 µM and 3.32 µM; with KM12 colon, 2.68 µM and 1.91 µM; in the test on TK-10 renal, 10.3 µM and 2.38 µM. Further, the TGI in the test on A549 NSCLC is 50 µM and 31.7 µM; in the test on T-47D breast, 5.61 µM and 3.42 µM; in the test with NCI-H226 lung it was 21.4 µM and 5.11 µM; with M14 melanoma it was 27.4 µM and 3.49 µM; with MALME-3M melanoma, 22.9 µM and 5.68 µM; in the test on UACC-257 melanoma, 50 µM and 27.7 µM. Further, the TGI in the test on KM12 colon was 50 µM and 15.4 µM; in the test on TK-10 renal, 50 µM and 7.83 µM.
Consider `O=C(COc1ccc(/C=C2\Oc3ccccc3C2=O)cc1)Nc1nc2ccccc2s1`, for which the GI50 with A549 NSCLC is 4.96 µM; in the test on T-47D breast, 41.4 µM; in the test with SR leukemia, 2.38 µM; in the test on NCI-H226 lung it was 23.3 µM; with M14 melanoma, 38.4 µM; in the test with HCT-116 colon it was 19.3 µM. Also, the GI50 in the test on MALME-3M melanoma was 3.94 µM; in the test with UACC-257 melanoma, 8.24 µM; in the test on KM12 colon it was 2.09 µM; in the test with TK-10 renal, over 84.8 µM. Also, the TGI was over 72.7 µM in the test with A549 NSCLC; over 100 µM with T-47D breast; 8.57 µM in the test on SR leukemia; over 95.5 µM with NCI-H226 lung; over 100 µM in the test with M14 melanoma; over 100 µM with HCT-116 colon. The TGI is over 100 µM in the test on MALME-3M melanoma, 45.2 µM with UACC-257 melanoma, over 100 µM in the test with KM12 colon and over 100 µM with TK-10 renal.
In the case of `C#Cc1ccc(-n2c(/C=C/c3ccc(O)cc3)nc3ncccc3c2=O)cc1`, the GI50 is 4.74 µM with A549 NSCLC; 4.63 µM in the test with T-47D breast; 3.54 µM in the test on SR leukemia; 2.58 µM with NCI-H226 lung; 2.7 µM in the test with M14 melanoma; 5.07 µM in the test with HCT-116 colon. Besides, the GI50 in the test with MALME-3M melanoma was 5.13 µM; in the test on UACC-257 melanoma it was 6.3 µM; in the test with KM12 colon, 3.81 µM; in the test with TK-10 renal it was 8.78 µM. Besides, the TGI in the test with A549 NSCLC is over 100 µM; in the test on T-47D breast, over 100 µM; with SR leukemia, over 100 µM; in the test on NCI-H226 lung, 13.1 µM; in the test on M14 melanoma, 8.08 µM; in the test on HCT-116 colon, over 100 µM. Further, the TGI in the test with MALME-3M melanoma was over 100 µM; with UACC-257 melanoma, over 100 µM; in the test with KM12 colon it was 60.3 µM; in the test on TK-10 renal, 68.7 µM.
On to `COc1ccccc1CNCCN1C(=O)c2ccc3c4c(ccc(c24)C1=O)C(=O)N(CCNCc1ccccc1OC)C3=O`, for which the GI50 in the test with A549 NSCLC was 0.204 µM; in the test on T-47D breast, 0.481 µM; in the test with SR leukemia, 0.178 µM; in the test on NCI-H226 lung, 1.26 µM; in the test with M14 melanoma, 0.189 µM; in the test on HCT-116 colon, 0.189 µM. The GI50 with MALME-3M melanoma is 0.386 µM; in the test with UACC-257 melanoma it was 0.196 µM; with KM12 colon it was 0.165 µM; with TK-10 renal it was 0.263 µM. Further, the TGI worked out at 0.47 µM in the test with A549 NSCLC; 1.27 µM in the test on T-47D breast; 0.581 µM in the test with SR leukemia; 2.77 µM in the test on NCI-H226 lung; 0.378 µM in the test with M14 melanoma; 0.406 µM in the test on HCT-116 colon. The TGI in the test with MALME-3M melanoma worked out at 1.55 µM; in the test on UACC-257 melanoma it was 0.387 µM; with KM12 colon it was 0.35 µM; in the test with TK-10 renal, 0.735 µM.
